Assay results reported in patent US9920042B2, “Compounds for use in the treatment of mycobacterial infections” (Universite de Droit et de la Sante de Lille 2, priority 2012, dated 2018).

Legend:
[1] = biological target: EthR protein (Mycobacterium tuberculosis, UniProt P9WMC1); assay: TSA test (Thermal Shift Assay), fluorescence with Sypro Orange; format: binding, M. tuberculosis; conditions: melting temperature shift of EthR with ligand vs protein alone
[2] = biological target: EthR protein (interaction with the ethA gene promoter) (Mycobacterium tuberculosis, UniProt P9WMC1); assay: Surface Plasmon Resonance test (SPR): inhibition of EthR binding to the ethA gene promoter; format: biochemical, M. tuberculosis
From the text: Surface Plasmon Resonance test (SPR) (described in the article “Ethionamide Boosters Combining Bioisosteric Replacement and Structure-Based Drug Design to Solve Pharmacokinetic Issues in a series of potent 1,2,4-Oxadiazole EthR Inhibitors” published in 2012 in the Journal of Medicinal Chemistry)
After having measured the ligands' affinity for the protein, it is necessary to verify that this does indeed result in the inactivation of the transcriptional repressor, thus preventing it from binding to its operon. For this, a functional test based on the principle of surface plasmon resonance is used. Surface Plasmon Resonance (SPR) makes it possible to visualize in real time the phenomena of association or dissociation between a partner immobilized on a biosensor and, a second partner injected in a continuous flow onto this surface. In the present case, the SPR technique enables the interaction between the EthR protein (analyte injected in continuous flow) and the ethA gene promoter (partner immobilized on the surface) to be visualized. Two cells are used for the test: a measuring cell onto which the so-called relevant DNA is affixed, i.e. corresponding to the ethA gene promoter, and a control cell on which is a non-relevant (thus different) DNA strand of same length, enabling the non-specific protein/DNA interactions to be removed. In a first step, the EthR protein is injected alone, until saturation, which enables a signal SIEthR corresponding to the quantity of EthR protein that has come to bind to the DNA to be measured. In a second step, the experience is reiterated in the presence of a potential ligand at different concentrations. If the compound binds to the EthR, thus preventing it from coming to bind on the DNA, a diminution of the response of the dose-dependent signal (SIEthR+lig) is observed.
By using the equation hereafter, it is possible to calculate for each concentration a percentage for the inhibition of the ligand under examination:
By representing the variation of the inhibition percentage depending on the ligand concentration, a value for IC50 can be deduced.

[3] = tested on: M. tuberculosis alone or macrophages infected by M. tuberculosis; assay: Potentiation of ethionamide cell test (High Content Screening); format: cell-based; conditions: ligand concentration potentiating ten times the activity of ethionamide; ethionamide constant at 0.1 μg/mL (1/10th of its CMI99); read-out: EC50
[4] = Measurement of the solubility; format: physicochemical; conditions: aqueous buffer, kinetic from dmso stock; PBS at pH 7.4, 24 h at AT, LC-MS ratio PBS/MeOH; read-out: Solubilité
Method: Measurement of the Solubility
40 μL of a solution at 10 mM in DMSO of the sample are added at 1.96 mL MeOH or PBS at pH 7.4. The samples are then agitated during 24 h at AT, centrifuged during 5 min and then filtrated on filters of 0.45 μm size. 20 μL of each solution are then added to 180 μL MeOH and then analyzed by LC-MS. The solubility is determined as ratio of the surfaces of the mass signals PBS/MeOH.

[5] = Measurement of the log D; format: physicochemical; conditions: octanol/PBS (1/1); octanol/PBS at pH 7.4, triplicate
Method: 40 μL of a solution at 10 mM in the DMSO of the sample are added to 1.96 mL of a mixture of 1/1 octanol/PBS at pH 7.4. The solution is agitated during 2 h at AT. 20 μL of each phase are added to 180 μL MeOH and analyzed by LC-MS. Each compound is evaluated in triplicate. The log D is determined as being the logarithm of the ratio of the product concentrations in the octanol and PBS phases, determined par the mass signals.

Sequence of EthR protein (interaction with the ethA gene promoter) (P9WMC1 whole entry, looked up): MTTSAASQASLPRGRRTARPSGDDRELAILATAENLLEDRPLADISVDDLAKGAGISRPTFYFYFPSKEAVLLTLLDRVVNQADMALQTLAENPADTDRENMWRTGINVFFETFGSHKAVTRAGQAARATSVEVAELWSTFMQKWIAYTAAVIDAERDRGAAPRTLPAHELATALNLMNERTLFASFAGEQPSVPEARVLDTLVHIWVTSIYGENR
Sequence of EthR protein (P9WMC1 whole entry, looked up): as above

| SMILES | ΔTm [1] | IC50 [2] | EC50 [3] | solubility at 24 h [4] | logD at 2 h [5] |
| --- | --- | --- | --- | --- | --- |
| Cc1nc(-c2ccc(S(=O)(=O)NCCC(C)C)cc2)cs1 [Compound 6, 4-(2-methylthiazol-4-yl)-N-isopentyl benzene sulfonamide] | 6.1 °C | 4900 ± 100 nM | 5700 nM | 20 µM | 3.55 |
| Cc1nc(-c2ccc(S(=O)(=O)NCCC(F)(F)F)cc2)cs1 [Compound 24] | 8.5 °C | 550 ± 20 nM | 290 nM | 41.4 µM | 3.12 |
| CC(C)OC(=O)Cc1nc(-c2ccc(S(=O)(=O)NCCC(F)(F)F)cc2)cs1 [Compound 35, 2-(4-(4-(N-(3,3,3-trifluoropropyl)sulfamoyl)phenyl)thiazol-2-yl) isopropyl acetate] | 11.6 °C | – | 300 nM | 2.8 µM | 3.76 |
| CC(C)CCCc1nc(-c2ccc(S(=O)(=O)NCCC(F)(F)F)cc2)cs1 [Compound 38, 4-(2-(4-methylpentyl)thiazol-4-yl)-N-(3,3,3-trifluoropropyl)benzene sulfonamide] | 12.4 °C | – | 390 nM | < 1 µM | > 4 |
| Cc1nc(-c2ccc(C(=O)NCCC(F)(F)F)cc2)cs1 [Compound 43, 4-(2-methylthiazol-4-yl)-N-(3,3,3-trifluoropropyl)benzamide] | 11.4 °C | 480 ± 60 nM | 83 nM | 46.9 µM | 2.82 |
| CC(C)Cc1nc(-c2ccc(C(=O)NCCC(F)(F)F)cc2)cs1 [Compound 49, 4-(2-isobutylthiazol-4-yl)-N-(3,3,3-trifluoropropyl)benzamide] | 12.6 °C | 440 ± 10 nM | < 40 nM | 4.4 µM | 3.91 |
| O=C(NCCC(F)(F)F)c1ccc(-c2csc(-c3ccncc3)n2)cc1 [Compound 57, 4-(2-(pyridin-4-yl)thiazol-4-yl)-N-(3,3,3-trifluoropropyl)benzamide] | 12.6 °C | – | < 10 nM | 29 µM | 3.07 |
| CCc1cc(-c2nc(-c3ccc(C(=O)NCCC(F)(F)F)cc3)cs2)ccn1 [Compound 58, 4-(2-(2-ethylpyridin-4-yl)thiazol-4-yl)-N-(3,3,3-trifluoropropyl)benzamide] | 13.3 °C | – | < 10 nM | 3.3 µM | 3.95 |
